The record followed here is patent US9206156B2, “Substituted indole derivatives” (GRÜNENTHAL GMBH, priority 2008, dated 2015).

In one experiment the target is T1, ORL1 receptor (Homo sapiens, UniProt P41146).
T1 construct: expressed in transfected cells; host or cells: CHO (recombinant CHO-ORL1 cells), membranes
Put plainly: ORL1 receptor binding assay with 3H-nociceptin/orphanin FQ (WGA-SPA beads). The settings on record: c=1 μM test substance; 0.5 nM 3H-nociceptin/orphanin FQ; membranes of recombinant CHO-ORL1 cells. An outline of the steps: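 Radioligand displacement on membranes from recombinant CHO-ORL1 cells, 0.5 nM 3H-nociceptin/orphanin FQ, 20 μg membrane protein per batch in 50 mM Hepes pH 7.4, 10 mM MgCl2, 1 mM EDTA. Incubated 1 h at room temperature with WGA-SPA beads, scintillation read. Reported as Ki (nM) or % inhibition at 1 μM.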

In a further experiment the target is T2, human μ-opiate receptor (Homo sapiens, UniProt P35372).
T2 construct: purchased NEN, Zaventem, Belgium RB-HOM; host or cells: CHO-K1 cells (membrane preparation)
Put plainly: μ-opiate receptor binding assay with [3H] naloxone (WGA-SPA beads). The settings on record: 1 μmol/l test substance; 1 nmol/l [3H] naloxone; CHO-K1 cell membranes expressing human μ-opiate receptor. An outline of the steps: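 CHO-K1 membranes expressing human μ-opiate receptor incubated 90 min at room temperature with 1 nmol/l [3H]naloxone and WGA-SPA beads in 50 mmol/l Tris-HCl with 0.05% azide, 0.06% BSA. Non-specific binding with 25 μmol/l naloxone; % inhibition at 1 μmol/l, or IC50 converted to Ki via Cheng-Prusoff.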

T2 sequence (P35372 whole entry): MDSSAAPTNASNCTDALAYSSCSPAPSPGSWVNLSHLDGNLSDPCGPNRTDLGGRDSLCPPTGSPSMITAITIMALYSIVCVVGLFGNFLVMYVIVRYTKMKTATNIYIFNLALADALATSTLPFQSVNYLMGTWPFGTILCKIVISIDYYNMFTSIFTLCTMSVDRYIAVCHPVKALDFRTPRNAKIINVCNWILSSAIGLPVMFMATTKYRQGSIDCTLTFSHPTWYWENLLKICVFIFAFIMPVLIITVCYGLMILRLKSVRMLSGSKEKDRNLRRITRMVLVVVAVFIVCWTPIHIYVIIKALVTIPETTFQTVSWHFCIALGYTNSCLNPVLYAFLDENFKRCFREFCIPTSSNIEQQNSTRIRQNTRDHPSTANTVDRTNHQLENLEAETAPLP
T1 sequence (P41146 whole entry): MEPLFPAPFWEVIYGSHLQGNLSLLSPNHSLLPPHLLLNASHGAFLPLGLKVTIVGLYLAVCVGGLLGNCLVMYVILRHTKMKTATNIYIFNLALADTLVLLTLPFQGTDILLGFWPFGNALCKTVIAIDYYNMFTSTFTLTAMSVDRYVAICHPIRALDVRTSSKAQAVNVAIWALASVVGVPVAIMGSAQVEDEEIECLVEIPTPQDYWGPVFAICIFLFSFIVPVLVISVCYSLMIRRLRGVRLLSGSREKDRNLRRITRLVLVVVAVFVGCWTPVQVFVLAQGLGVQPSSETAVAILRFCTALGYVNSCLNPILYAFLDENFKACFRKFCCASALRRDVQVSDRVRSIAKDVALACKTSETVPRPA

Turning to `CC(C)C(C(=O)N1CCC(c2ccccc2)(N(C)C)CC1)N(C)C(=O)CCc1c[nH]c2ccccc12` (stereo not shown) [Example 94, N-(1-(4-(dimethylamino)-4-phenylpiperidin-1-yl)-3-methyl-1-oxobutan-2-yl)-3-(1H-indol-3-yl)-N-methylpropanamide], the inhibition at 1 µM came out at 82% at ORL1 receptor and 71% on human μ-opiate receptor.

On to `CN(C(=O)Cc1c[nH]c2cc(F)ccc12)C(C(=O)N1CCC(c2cccs2)(N(C)C)CC1)c1ccccc1` (stereo not shown) [Example 95, N-(2-(4-(dimethylamino)-4-(thiophen-2-yl)piperidin-1-yl)-2-oxo-1-phenylethyl)-2-(6-fluoro-1H-indol-3-yl)-N-methylacetamide], for which the inhibition at 1 µM was found to be 82% on ORL1 receptor and 81% at human μ-opiate receptor.

On to `CN(C)C1(c2cccs2)CCN(C(=O)CC(NC(=O)c2ccc3cc[nH]c3c2)c2ccccc2)CC1` (stereo not shown) [Example 96, N-(3-(4-(dimethylamino)-4-(thiophen-2-yl)piperidin-1-yl)-3-oxo-1-phenylpropyl)-1H-indole-6-carboxamide], for which the inhibition at 1 µM was 79% on ORL1 receptor and 96% at human μ-opiate receptor.

Take `CN(C)C1(c2cccs2)CCN(C(=O)CC(NC(=O)C2CCCc3c2[nH]c2ccc(Cl)cc32)c2ccccc2)CC1` (stereo not shown) [Example 97, 6-chloro-N-(3-(4-(dimethylamino)-4-(thiophen-2-yl)piperidin-1-yl)-3-oxo-1-phenylpropyl)-2,3,4,9-tetrahydro-1H-carbazole-1-carboxamide]: the inhibition at 1 µM turned out to be 77% on ORL1 receptor and 70% on human μ-opiate receptor.

As to `CN(C)C1(c2ccccc2)CCN(C(=O)CCNC(=O)CCc2c[nH]c3ccccc23)CC1` [Example 98, N-(3-(4-(dimethylamino)-4-phenylpiperidin-1-yl)-3-oxopropyl)-3-(1H-indol-3-yl)propanamide], the values for the inhibition at 1 µM on ORL1 receptor and on human μ-opiate receptor were 73% and 85%, respectively.

Turning to `CN(C)C1(c2ccccc2)CCN(C(=O)CCNC(=O)c2ccc3ccn(C)c3c2)CC1` [Example 99, N-(3-(4-(dimethylamino)-4-phenylpiperidin-1-yl)-3-oxopropyl)-1-methyl-1H-indole-6-carboxamide], the figures for the inhibition at 1 µM at ORL1 receptor and on human μ-opiate receptor were 71% and 87%, respectively.

`CN(C(=O)Cc1c[nH]c2ccc(Br)cc12)C(C(=O)N1CCC(c2cccs2)(N(C)C)CC1)c1ccccc1` (stereo not shown) [Example 100, 2-(5-bromo-1H-indol-3-yl)-N-(2-(4-(dimethylamino)-4-(thiophen-2-yl)piperidin-1-yl)-2-oxo-1-phenylethyl)-N-methylacetamide]: the inhibition at 1 µM was determined as 69% at ORL1 receptor and 95% on human μ-opiate receptor.

Consider `CN(C)C1(c2cccs2)CCN(C(=O)CC(NC(=O)c2ccc3ccn(C)c3c2)c2ccccc2)CC1` (stereo not shown) [Example 101, N-(3-(4-(dimethylamino)-4-(thiophen-2-yl)piperidin-1-yl)-3-oxo-1-phenylpropyl)-1-methyl-1H-indole-6-carboxamide], for which the inhibition at 1 µM was determined as 68% on ORL1 receptor and 96% at human μ-opiate receptor.

Turning to `CN(C(=O)c1ccc2cc[nH]c2c1)C(C(=O)N1CCC(c2cccs2)(N(C)C)CC1)c1ccccc1` (stereo not shown) [Example 102, N-(2-(4-(dimethylamino)-4-(thiophen-2-yl)piperidin-1-yl)-2-oxo-1-phenylethyl)-N-methyl-1H-indole-6-carboxamide], the inhibition at 1 µM at ORL1 receptor is 65%; at human μ-opiate receptor, 66%.

Turning to `CN(C)C1(c2ccccc2)CCN(C(=O)C2CCCN(C(=O)C3CCCc4c3[nH]c3ccc(Cl)cc43)C2)CC1` (stereo not shown) [Example 103, (6-chloro-2,3,4,9-tetrahydro-1H-carbazol-1-yl)(3-(4-(dimethylamino)-4-phenylpiperidine-1-carbonyl)piperidin-1-yl)methanone], the inhibition at 1 µM came to 65% on ORL1 receptor and 35% at human μ-opiate receptor.

Turning to `CN(C)C1(c2ccccc2)CCN(C(=O)C2CCCN(C(=O)c3cc4cc(F)ccc4[nH]3)C2)CC1` (stereo not shown) [Example 104, (4-(dimethylamino)-4-phenylpiperidin-1-yl)(1-(5-fluoro-1H-indole-2-carbonyl)piperidin-3-yl)methanone], the inhibition at 1 µM at ORL1 receptor was found to be 64%; at human μ-opiate receptor it was 89%.

Regarding `CC(C)C(CC(=O)N(C)C(C(=O)N1CCC(c2cccs2)(N(C)C)CC1)c1ccccc1)c1c[nH]c2ccccc12` (stereo not shown) [Example 105, N-(2-(4-(dimethylamino)-4-(thiophen-2-yl)piperidin-1-yl)-2-oxo-1-phenylethyl)-3-(1H-indol-3-yl)-N,4-dimethylpentanamide], the inhibition at 1 µM at ORL1 receptor was 63%; on human μ-opiate receptor, 91%.

`CC(C)C(CC(=O)N1CCCC(C(=O)N2CCC(c3ccccc3)(N(C)C)CC2)C1)c1c[nH]c2ccccc12` (stereo not shown) [Example 106, 1-(3-(4-(dimethylamino)-4-phenylpiperidine-1-carbonyl)piperidin-1-yl)-3-(1H-indol-3-yl)-4-methylpentan-1-one]: the inhibition at 1 µM amounted to 63% on ORL1 receptor and 92% on human μ-opiate receptor.

Take `CN(C)C1(c2ccccc2)CCN(C(=O)CCNC(=O)C2CCCc3c2[nH]c2ccc(Cl)cc32)CC1` (stereo not shown) [Example 107, 6-chloro-N-(3-(4-(dimethylamino)-4-phenylpiperidin-1-yl)-3-oxopropyl)-2,3,4,9-tetrahydro-1H-carbazole-1-carboxamide]: the inhibition at 1 µM came out at 63% at ORL1 receptor and 52% at human μ-opiate receptor.

For the molecule `CN(C)C1(c2cccs2)CCN(C(=O)CC(NC(=O)c2cccc3c2ccn3C)c2ccccc2)CC1` (stereo not shown) [Example 108, N-(3-(4-(dimethylamino)-4-(thiophen-2-yl)piperidin-1-yl)-3-oxo-1-phenylpropyl)-1-methyl-1H-indole-4-carboxamide], the figures for the inhibition at 1 µM on ORL1 receptor and on human μ-opiate receptor were 63% and 98%, respectively.

For `CN(C)C1(c2cccs2)CCN(C(=O)CNC(=O)c2ccc3ccn(C)c3c2)CC1` [Example 109, N-(2-(4-(dimethylamino)-4-(thiophen-2-yl)piperidin-1-yl)-2-oxoethyl)-1-methyl-1H-indole-6-carboxamide], the inhibition at 1 µM worked out at 61% at ORL1 receptor and 81% at human μ-opiate receptor.

`CN(C(=O)CCc1c[nH]c2ccccc12)C(C(=O)N1CCC(c2cccs2)(N(C)C)CC1)c1ccccc1` (stereo not shown) [Example 110, N-(2-(4-(dimethylamino)-4-(thiophen-2-yl)piperidin-1-yl)-2-oxo-1-phenylethyl)-3-(1H-indol-3-yl)-N-methylpropanamide]: the figures for the inhibition at 1 µM on ORL1 receptor and on human μ-opiate receptor were 60% and 92%, respectively.

Regarding `CN(C(=O)c1ccc2ccn(C)c2c1)C(C(=O)N1CCC(c2cccs2)(N(C)C)CC1)c1ccccc1` (stereo not shown) [Example 111, N-(2-(4-(dimethylamino)-4-(thiophen-2-yl)piperidin-1-yl)-2-oxo-1-phenylethyl)-N,1-dimethyl-1H-indole-6-carboxamide], the inhibition at 1 µM on ORL1 receptor was 60%; on human μ-opiate receptor, 82%.

Regarding `CCCCC1(N(C)C)CCN(CCN(C)C(=O)Cc2c[nH]c3cc(F)ccc23)CC1` [Example 112, N-(2-(4-butyl-4-(dimethylamino)piperidin-1-yl)ethyl)-2-(6-fluoro-1H-indol-3-yl)-N-methylacetamide], the inhibition at 1 µM at ORL1 receptor came to 59%; on human μ-opiate receptor, 92%.

Turning to `CN(C)C1(c2ccccc2)CCN(C(=O)CCNC(=O)c2ccc3cc[nH]c3c2)CC1` [Example 113, N-(3-(4-(dimethylamino)-4-phenylpiperidin-1-yl)-3-oxopropyl)-1H-indole-6-carboxamide], the results for the inhibition at 1 µM at ORL1 receptor and at human μ-opiate receptor were 57% and 89%, respectively.

One may read the inhibition as the percentage by which the read-out fell short of the control.
